Reference: ChEMBL document CHEMBL1909046, “DrugMatrix in vitro pharmacology data”

Key:
[1] = target: T1, Neuropeptide Y receptor type 1 (Homo sapiens, UniProt P25929); type: cell membranes, Membrane; conditions: sk-n-mc; also: in other assays of this panel Not Active means under 50% inhibition at 10 µM
T1 sequence (P25929 whole entry): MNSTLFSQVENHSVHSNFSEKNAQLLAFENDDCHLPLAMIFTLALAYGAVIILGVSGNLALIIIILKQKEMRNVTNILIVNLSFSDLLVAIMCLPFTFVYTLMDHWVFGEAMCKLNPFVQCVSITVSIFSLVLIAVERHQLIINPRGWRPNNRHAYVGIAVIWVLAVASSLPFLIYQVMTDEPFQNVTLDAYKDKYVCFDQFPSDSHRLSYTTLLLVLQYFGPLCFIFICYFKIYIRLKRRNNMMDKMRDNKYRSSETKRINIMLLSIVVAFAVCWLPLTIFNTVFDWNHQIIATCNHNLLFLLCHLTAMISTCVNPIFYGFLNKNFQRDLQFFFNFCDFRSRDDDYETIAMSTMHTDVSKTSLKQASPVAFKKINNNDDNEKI

Neutrophil elastase = target: T2, Neutrophil elastase (Homo sapiens, UniProt P08246); type: tissue-based;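 also: inhibition of neutrophil elastase enzyme activity, measured with a p-nitroanilide-linked peptide substrate; in other assays of this panel Not Active means under 50% inhibition at 10 µM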
T2 sequence (P08246 whole entry): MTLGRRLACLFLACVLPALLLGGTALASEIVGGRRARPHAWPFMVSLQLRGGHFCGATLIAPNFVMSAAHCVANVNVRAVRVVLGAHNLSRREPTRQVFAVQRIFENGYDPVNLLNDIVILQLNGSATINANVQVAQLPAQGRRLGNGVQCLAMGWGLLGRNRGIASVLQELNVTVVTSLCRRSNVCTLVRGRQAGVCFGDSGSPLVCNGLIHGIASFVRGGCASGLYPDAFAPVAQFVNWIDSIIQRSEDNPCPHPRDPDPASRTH

[2] = target: Beta-3 adrenergic receptor (Homo sapiens, UniProt P13945); assay: DRUGMATRIX: Adrenergic beta3 radioligand binding (ligand: [125I] Cyanopindolol); type: cell membranes, HEK293, Membrane; conditions: Not Active = under 50% inhibition at 10 µM; for Ki: read-out: Ki
Beta-3 adrenergic receptor, sequence (P13945 whole entry): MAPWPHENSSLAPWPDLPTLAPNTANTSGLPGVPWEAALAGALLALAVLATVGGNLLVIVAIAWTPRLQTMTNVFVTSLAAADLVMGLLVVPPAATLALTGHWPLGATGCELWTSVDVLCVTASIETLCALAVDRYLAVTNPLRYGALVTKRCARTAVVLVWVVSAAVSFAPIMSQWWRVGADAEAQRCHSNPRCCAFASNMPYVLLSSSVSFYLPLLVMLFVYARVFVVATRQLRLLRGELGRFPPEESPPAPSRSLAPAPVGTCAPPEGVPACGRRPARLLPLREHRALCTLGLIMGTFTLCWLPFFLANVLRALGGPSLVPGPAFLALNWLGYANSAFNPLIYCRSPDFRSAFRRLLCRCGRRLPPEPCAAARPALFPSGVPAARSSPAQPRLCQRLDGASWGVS

[3] = DRUGMATRIX: Interleukin IL-1 radioligand binding (ligand: [125I] interleukin 1beta); type: cell membranes, Membrane; conditions: nih3t3; Not Active = under 50% inhibition at 10 µM
[4] = DRUGMATRIX: Leukotriene, BLT (LTB4) radioligand binding (ligand: [3H]LTB4); type: cell membranes, Membrane; conditions: u-937; Not Active = under 50% inhibition at 10 µM
[5] = target: Beta-2 adrenergic receptor (Homo sapiens, UniProt P07550); assay: DRUGMATRIX: Adrenergic beta2 radioligand binding (ligand: [3H] CGP-12177); type: cell membranes, CHO, Membrane; conditions: cho; Not Active = under 50% inhibition at 10 µM
Beta-2 adrenergic receptor, sequence (P07550 whole entry): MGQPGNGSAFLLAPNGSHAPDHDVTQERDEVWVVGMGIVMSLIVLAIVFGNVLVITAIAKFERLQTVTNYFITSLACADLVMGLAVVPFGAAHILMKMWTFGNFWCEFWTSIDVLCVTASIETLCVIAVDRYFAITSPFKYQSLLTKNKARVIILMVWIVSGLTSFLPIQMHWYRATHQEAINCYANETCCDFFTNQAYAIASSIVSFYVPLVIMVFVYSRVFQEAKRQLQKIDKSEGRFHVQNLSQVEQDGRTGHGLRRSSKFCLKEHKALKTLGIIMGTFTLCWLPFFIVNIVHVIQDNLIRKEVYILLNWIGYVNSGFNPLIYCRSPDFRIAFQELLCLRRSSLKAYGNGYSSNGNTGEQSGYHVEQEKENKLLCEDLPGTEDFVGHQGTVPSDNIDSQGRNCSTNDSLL

Cytochrome P450 2D6 = Cytochrome P450 2D6 (Homo sapiens, UniProt P10635); conditions: bti-tn-5b1-4; also: in other assays of this panel Not Active means under 50% inhibition at 10 µM
Cytochrome P450 2D6, sequence (P10635 whole entry): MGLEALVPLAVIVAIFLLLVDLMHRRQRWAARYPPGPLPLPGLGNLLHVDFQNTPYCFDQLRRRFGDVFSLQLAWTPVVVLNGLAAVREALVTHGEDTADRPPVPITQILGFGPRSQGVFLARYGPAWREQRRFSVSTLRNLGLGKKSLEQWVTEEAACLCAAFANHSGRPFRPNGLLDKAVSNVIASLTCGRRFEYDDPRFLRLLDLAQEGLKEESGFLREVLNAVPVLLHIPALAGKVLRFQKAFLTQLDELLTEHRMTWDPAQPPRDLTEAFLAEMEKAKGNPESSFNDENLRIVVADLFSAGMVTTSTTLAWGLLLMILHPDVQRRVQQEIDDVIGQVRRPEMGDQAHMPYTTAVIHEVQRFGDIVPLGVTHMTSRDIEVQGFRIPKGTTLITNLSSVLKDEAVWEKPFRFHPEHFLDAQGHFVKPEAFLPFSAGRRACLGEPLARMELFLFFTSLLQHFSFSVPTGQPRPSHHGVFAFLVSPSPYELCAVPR

CCOc1nc2cccc(C(=O)O)c2n1Cc1ccc(-c2ccccc2-c2nnn[nH]2)cc1
Not Active: IC50 [1] | IC50 (Neutrophil elastase) | IC50 [3] | Ki [3] | IC50 [4] | Ki [4] | IC50 [5]
4.3 µM: IC50 ([2]; read-out: IC50)
3.2 µM: Ki [2]

O=C(O)CCCc1cccs1
Not Active: IC50 [1] | IC50 (Cytochrome P450 2D6) | Ki (Cytochrome P450 2D6) | IC50 (Neutrophil elastase) | IC50 ([2]; hek293) | IC50 [3] | Ki [3] | IC50 [4] | Ki [4] | IC50 [5]

COc1ccccc1N
Not Active: IC50 [1] | IC50 (Cytochrome P450 2D6) | Ki (Cytochrome P450 2D6) | IC50 (Neutrophil elastase) | IC50 ([2]; hek293) | IC50 [3] | Ki [3] | IC50 [4] | Ki [4] | IC50 [5]

O=C(c1ccccc1F)N1CCC(Cc2ccccc2)CC1
Not Active: IC50 [1] | IC50 (Cytochrome P450 2D6) | Ki (Cytochrome P450 2D6) | IC50 (Neutrophil elastase) | IC50 ([2]; hek293) | IC50 [3] | Ki [3] | IC50 [4] | Ki [4] | IC50 [5]

Cc1c(O)cccc1C(=O)N[C@@H](CSc1ccccc1)[C@H](O)CN1C[C@H]2CCCC[C@H]2C[C@H]1C(=O)NC(C)(C)C
25.6 µM: Ki [2]
34.1 µM: IC50 ([2]; read-out: IC50)
Not Active: IC50 [1] | IC50 (Cytochrome P450 2D6) | Ki (Cytochrome P450 2D6) | IC50 (Neutrophil elastase) | IC50 [3] | Ki [3] | IC50 [4] | Ki [4] | IC50 [5]

CC(O)COC[C@H]1O[C@@H]2O[C@H]3[C@H](O)[C@@H](O)[C@@H](O[C@H]4[C@H](O)[C@@H](O)[C@@H](O[C@H]5[C@H](O)[C@@H](O)[C@@H](O[C@H]6[C@H](O)[C@@H](O)[C@@H](O[C@H]7[C@H](O)[C@@H](O)[C@@H](O[C@H]8[C@H](O)[C@@H](O)[C@@H](O[C@H]1[C@H](O)[C@H]2O)O[C@@H]8COCC(C)O)O[C@@H]7COCC(C)O)O[C@@H]6COCC(C)O)O[C@@H]5COCC(C)O)O[C@@H]4COCC(C)O)O[C@@H]3COCC(C)O (stereo partly drawn) [2-HYDROXYPROPYL-BETA-CYCLODEXTRIN]
Not Active: IC50 [1] | IC50 (Cytochrome P450 2D6) | Ki (Cytochrome P450 2D6) | IC50 (Neutrophil elastase) | IC50 ([2]; hek293) | IC50 [3] | Ki [3] | IC50 [4] | Ki [4] | IC50 [5]

NC(=O)c1cccc(N)c1 [3-AMINOBENZAMIDE]
Not Active: IC50 [1] | IC50 (Cytochrome P450 2D6) | Ki (Cytochrome P450 2D6) | IC50 (Neutrophil elastase) | IC50 ([2]; hek293) | IC50 [3] | Ki [3] | IC50 [4] | Ki [4] | IC50 [5]

C[C@H]1O[C@H](O[C@H]2[C@H](O)[C@@H](O)[C@@H](O[C@H]3[C@H](O)[C@@H](O)C(O)O[C@@H]3CO)O[C@@H]2CO)[C@H](O)[C@@H](O)[C@@H]1N[C@H]1C=C(CO)[C@@H](O)[C@H](O)[C@H]1O (stereo not given in full) [ACARBOSE]
Not Active: IC50 [1] | IC50 (Cytochrome P450 2D6) | Ki (Cytochrome P450 2D6) | IC50 (Neutrophil elastase) | IC50 ([2]; hek293) | IC50 [3] | Ki [3] | IC50 [4] | Ki [4] | IC50 [5]

CC[C@H]1[C@@H]2C[C@H]3[C@@H]4N(C)c5ccccc5[C@]45C[C@@H]([C@@H]2[C@H]5O)N3[C@@H]1O [AJMALINE]
Not Active: IC50 [1] | IC50 (Neutrophil elastase) | IC50 ([2]; hek293) | IC50 [3] | Ki [3] | IC50 [4] | Ki [4] | IC50 [5]

NC12CC3CC(CC(C3)C1)C2 [AMANTADINE]
Not Active: IC50 [1] | IC50 (Neutrophil elastase) | IC50 ([2]; hek293) | IC50 [3] | Ki [3] | IC50 [4] | Ki [4] | IC50 [5]

NCCCNCCSP(=O)(O)O [AMIFOSTINE]
Not Active: IC50 [1] | IC50 (Cytochrome P450 2D6) | Ki (Cytochrome P450 2D6) | IC50 (Neutrophil elastase) | IC50 ([2]; hek293) | IC50 [3] | Ki [3] | IC50 [4] | Ki [4] | IC50 [5]

CN(C)CCC=C1c2ccccc2CCc2ccccc21 [AMITRIPTYLINE]
Not Active: IC50 [1] | IC50 (Cytochrome P450 2D6) | Ki (Cytochrome P450 2D6) | IC50 (Neutrophil elastase) | IC50 ([2]; hek293) | IC50 [3] | Ki [3] | IC50 [4] | Ki [4] | IC50 [5]

CC(=O)Oc1ccccc1C(=O)O [ASPIRIN]
Not Active: IC50 [1] | IC50 (Cytochrome P450 2D6) | Ki (Cytochrome P450 2D6) | IC50 (Neutrophil elastase) | IC50 ([2]; hek293) | IC50 [3] | Ki [3] | IC50 [4] | Ki [4] | IC50 [5]

CC(C)c1c(C(=O)Nc2ccccc2)c(-c2ccccc2)c(-c2ccc(F)cc2)n1CC[C@@H](O)C[C@@H](O)CC(=O)O [ATORVASTATIN]
Not Active: IC50 [1] | IC50 (Neutrophil elastase) | IC50 ([2]; hek293) | IC50 [3] | Ki [3] | IC50 [4] | Ki [4] | IC50 [5]

CC(=O)OC[C@H]1O[C@@H](n2ncc(=O)[nH]c2=O)[C@H](OC(C)=O)[C@@H]1OC(C)=O [AZARIBINE]
Not Active: IC50 [1] | IC50 (Cytochrome P450 2D6) | Ki (Cytochrome P450 2D6) | IC50 (Neutrophil elastase) | IC50 ([2]; hek293) | IC50 [3] | Ki [3] | IC50 [4] | Ki [4] | IC50 [5]

C[C@H]1[C@H](NC(=O)/C(=N\OC(C)(C)C(=O)O)c2csc(N)n2)C(=O)N1S(=O)(=O)O [AZTREONAM]
Not Active: IC50 [1] | IC50 (Cytochrome P450 2D6) | Ki (Cytochrome P450 2D6) | IC50 (Neutrophil elastase) | IC50 ([2]; hek293) | IC50 [3] | Ki [3] | IC50 [4] | Ki [4] | IC50 [5]

O=C(O)CCNC(=O)c1ccc(/N=N/c2ccc(O)c(C(=O)O)c2)cc1 [BALSALAZIDE]
Not Active: IC50 [1] | IC50 (Cytochrome P450 2D6) | Ki (Cytochrome P450 2D6) | IC50 (Neutrophil elastase) | IC50 ([2]; hek293) | IC50 [3] | Ki [3] | IC50 [4] | Ki [4] | IC50 [5]

CN1CCN(C(c2ccccc2)c2ccccc2)CC1 [CYCLIZINE]
Not Active: IC50 [1] | IC50 (Neutrophil elastase) | IC50 ([2]; hek293) | IC50 [3] | Ki [3] | IC50 [4] | Ki [4] | IC50 [5]

CC(C)(C(=O)O)c1ccc(C(O)CCCN2CCC(C(O)(c3ccccc3)c3ccccc3)CC2)cc1 (stereo not given) [FEXOFENADINE]
Not Active: IC50 [1] | IC50 (Neutrophil elastase) | IC50 ([2]; hek293) | IC50 [3] | Ki [3] | IC50 [4] | Ki [4] | IC50 [5]

CC(=O)OCC(=O)[C@@]12OC(C)(C)O[C@@H]1C[C@H]1[C@@H]3C[C@H](F)C4=CC(=O)C=C[C@]4(C)[C@@]3(F)[C@@H](O)C[C@@]12C [FLUOCINONIDE]
Not Active: IC50 [1] | IC50 (Neutrophil elastase) | IC50 ([2]; hek293) | IC50 [3] | Ki [3] | IC50 [4] | Ki [4] | IC50 [5]

N[C@@H](Cn1ccc(=O)c(O)c1)C(=O)O [L-MIMOSINE]
Not Active: IC50 [1] | IC50 (Neutrophil elastase) | IC50 ([2]; hek293) | IC50 [3] | Ki [3] | IC50 [4] | Ki [4] | IC50 [5]

C[C@@H]1C/C=C/C=C/C=C/C=C/[C@H](O[C@@H]2O[C@H](C)[C@@H](O)[C@H](N)[C@@H]2O)C[C@@H]2O[C@](O)(C[C@@H](O)C[C@H]3O[C@@H]3/C=C/C(=O)O1)C[C@H](O)[C@H]2C(=O)O [NATAMYCIN]
Not Active: IC50 [1] | IC50 (Neutrophil elastase) | IC50 ([2]; hek293) | IC50 [3] | Ki [3] | IC50 [4] | Ki [4] | IC50 [5]

NNCCc1ccccc1 [PHENELZINE]
Not Active: IC50 [1] | IC50 (Neutrophil elastase) | IC50 ([2]; hek293) | IC50 [3] | Ki [3] | IC50 [4] | Ki [4] | IC50 [5]

CC[C@]1(O)C[C@@H]2CN(CCc3c([nH]c4ccccc34)[C@@](C(=O)OC)(c3cc4c(cc3OC)N(C)[C@H]3[C@@](O)(C(N)=O)[C@H](O)[C@]5(CC)C=CCN6CC[C@]43[C@@H]65)C2)C1 [VINDESINE]
Not Active: IC50 [1] | IC50 (Neutrophil elastase) | IC50 ([2]; hek293) | IC50 [3] | Ki [3] | IC50 [4] | Ki [4] | IC50 [5]
